Reference: patent US20090042783A1, “APO E ANALOGS AND METHODS FOR THEIR USE” (priority 2004, published 2009)
Non-standard residues stand in square brackets, D forms with d. Residues, ends and D or L forms follow the SMILES beside them. Aib = CC(C)(N)C(=O)O

Tests used:
mice = experiment: Maximum tolerated dose, tail vein injection; settings: mouse, in vivo
Method: (§1) Candidate compounds are then be screened in our closed head injury model of traumatic brain injury by intravenous dosing at 30 minutes post injury. Novel compounds are initially tested at one half their maximum tolerated dose (0.5×MTD). The maximum tolerated dose (MTD) is the dose of peptide given in a tail vein injection that results in no death of mice. Death is defined as a complete lack of breathing and complete unresponsiveness to external stimuli such as tail pinch and/or toe pinch for a period of 10 or more minutes. Animals are given an initial dose of 1 mg/kg of peptide analog or non-peptide mimetic and observed continuously for 15 minutes and then at 15 minute intervals for 2 hours and then at 1 hour intervals for 4 hours more. Animals are also observed at 24 hours post injection.
(§2) The maximum tolerated dose is the maximum dose at which no animals die at any of these observation times. As an example of this procedure, the MTD is determined empirically by initially dosing groups of 3 mice at 1 mg/kg. If this dose is tolerated, then another group of 3 mice is dosed at 3 mg/kg. If this dose is tolerated, then another group of 3 mice is dosed at 9 mg/kg, etc. If, for example, 9 mg/kg is not tolerated because 1 or more animal died, then doses in-between 3 mg/kg and 9 mg/kg are investigated until the MTD is found. Once the MTD is empirically determined, it is confirmed in another group of 7 mice for a total of 10 mice being tested at the MTD and all of which must not die to confirm that this is the MTD.

[1] = Maximum tolerated dose, tail vein injection; settings: mouse, in vivo, intravenous, highest dose with death of no mice in 24 hours, tail vein
Method: as §1, §2

[2] = mouse, in vivo
Text: We have employed a similar LC/MS procedure to identify fragments of COG1410 that may arise by degradation processes.

RAW 264.7 macrophages [3] = experiment: NO production and iNOS mRNA in C. rodentium-stimulated macrophages; assay type: cell-based, mouse; settings: C. rodentium lysates; COG1410 2 μM, COG4502 0.1-5 μM
Text: RAW 264.7 cells were stimulated with French-pressed lysates of C. rodentium at a multiplicity of infection of 100. […] B, RT-PCR for iNOS.
We used bacterial lysates to more closely mimic the bacterial products to which lamina propria macrophages are likely to be exposed.

RAW 264.7 macrophages [4] = tested on: RAW 264.7 macrophages
in vivo = settings: male, C57B1/6, mouse, 0.4 mg/kg
[5] = tested on: mice with traumatic brain injury; experiment: Closed head injury model of traumatic brain injury (rotorod, Morris Water Maze)
Method: C57Bl/6J male mice (The Jackson Laboratory, ME), 12-16 weeks of age and weighing 24-32 g, are used for all experiments. Anesthesia is first induced with isoflurane in 30% O2/balance N2. The trachea is intubated and the lungs mechanically ventilated with 1.6% isoflurane in 30% O2/balance N2. Temperature is monitored with a rectal probe and maintained at 36.5° C. with a heat lamp. The right internal jugular vein is cannulated with silicone catheter. […] Intubated animals are then placed prone on a molded acrylic cast (FIG. 6A). […] The scalp is incised and the skull exposed. A concave 3 mm metallic disc is secured to the skull surface (with the concave surface in juxtaposition to the skull) by an adhesive. […] The disc is placed directly midline just caudal to bregma (FIG. 6B). […] The mice are positioned in a stereotactic frame. Although the stereotactactic frame helps to stabilize the animal and exactly calibrate the vertical displacement on impact (3 mm), ear bars are not used due to a much higher rate of skull fracture (or brainstem injury if the head rotates around the axis of the ear bars during impact). The piston is discharged at 6.8±0.2 m/s so as to impact the skull in the acrylic mold to move a maximum of approximately 3 mm (FIG. 6C). Inspired isoflurane is decreased to 0.7% immediately after impact. The scalp was infiltrated with lidocaine and closed with suture. Ophthalmic ointment was applied to the eyes for protection. The incidence of skull fracture is low (approximately 10%), as the metal disk helps to diffuse the impact, and the absence of ear bar fixation allows for displacement of the entire head. Mice were excluded if a depressed skull fracture was observed (incidence of approximately 10%). The animals are allowed to recover spontaneous ventilation then extubated. […] In these mice, arterial blood pressure, blood gas and glucose measurement at baseline, immediately after injury, and 15 minutes after injury are monitored during the recovery period.
Briefly, baseline performance on rotorod is established before the mice are intubated, the skin over the scalp reflected and a controlled cortical impact from a pneumatic impactor given on the midline. The skin is closed with surgical clips and the animals are constantly monitored until awake from anesthesia and then hourly for the next 4 hours. […] Performance on rotorod is tested at 24 hours post impaction and then every day for 5 days and data is presented as described. Groups of 12 mice are used for each compound at 0.5×MTD. […] Novel peptides and non-peptide analogs are also given by tail vein injection.
Daily Rotarod (RR) testing was used to assess short term motor and cerebellar deficit following head injury (Hamm et al., 1994). Mice were held by their tails and placed on the RR facing the wall by using gentle swinging motion while running in a constant speed mode.

For `CC(=O)N[C@@H](C)C(=O)N[C@@H](CO)C(=O)NC(C)(C)C(=O)N[C@@H](CC(C)C)C(=O)N[C@@H](CCCNC(=N)N)C(=O)N[C@@H](CCCCN)C(=O)N[C@@H](CC(C)C)C(=O)NC(C)(C)C(=O)N[C@@H](CCCCN)C(=O)N[C@@H](CCCNC(=N)N)C(=O)N[C@@H](CC(C)C)C(=O)N[C@@H](CC(C)C)C(N)=O` [COG1410, Ac-AS-Aib-LRKL-Aib-KRLL-NH2] (Ac-AS[Aib]LRKL[Aib]KRLL-NH2), the “Therapeutic Index (ratio of the MTD to the MED)” value (mice) was 26, the MTD at 24 h [1] was 8 mg/kg and the “Major metabolite in plasma” value [2] was “acetyl-AS-Aib-LRKL-Aib-KR”. The “NO production (nitrite levels) in macrophage supernatants” value (RAW 264.7 macrophages [3]) was “inhibition of NO production”, the “Biologic Activity relative to COG133” value (BV2 microglial cells; Table 2, preliminary data) was >5x x COG133 and the IC50 (BV2 microglial cells; read-out: IC50, inhibition of nitric oxide release, BV2 cells, LPS for 40 hours, approximate) was ~2 µM. The “Concentration at which cell toxicity was noted” value (RAW 264.7 macrophages [4]) was ≥ 5 µM, the half-life (in vivo) was 2 min and the “Neuroprotection (rotorod) when administered 120 minutes after TBI” value ([5]; 120 minutes after TBI, vs saline) was “neuroprotective”. For the same compound, the “Minimum effective dose (MED)” value ([5]; lowest dose with statistically significant improvement vs vehicle, preliminary) was 0.3 mg/kg and the “Gain in therapeutic window as compared to COG133” value ([5]; mouse, in vivo) was 4 fold.
